Test results published in paper PMC10251479, “PROTAC-Induced Glycogen Synthase Kinase 3β Degradation as a Potential Therapeutic Strategy for Alzheimer’s Disease” (ACS Chemical Neuroscience, 2023).
Where “and” joins values, the source holds several entries; their conditions need not be identical. Identical values can stand only once.

Key:
PAMPA-BBB permeation = format: in vitro ADME; conditions: for Papp at 2.75 h: PAMPA, pH 7.4, PBS:EtOH (70:30), 2 h 45 min at 25 °C, porcine brain lipid, mean ± SD of two independent experiments, read-out: Pe (experimental data)
Description: 11. PAMPA BBB permeation studies.
Prediction of the brain penetration was evaluated using a parallel artificial membrane permeability assay (PAMPA).[12] Ten commercial drugs, PBS at pH 7.4, EtOH, and dodecane were purchased from Sigma- Aldrich, Acros organics, Merck, and Fluka. The porcine polar brain lipid (PBL) was from Avanti Polar Lipids. The donor plate was a 96-well filtrate plate (Multiscreen® IP Sterile Plate PDVF […]
both from Millipore. Filter PDVF membrane units (diameter 30 mm, pore size 0.45 µm) from Symta were used to filter the samples. A 96-well plate UV reader (Biteck Instruments, Synergy H4 Hibrid Reader) was used for the UV measurements.
12 mg of promazine) were dissolved in 1 mL of EtOH. 100 µL of this compound stock solution were taken and 1400 µL of EtOH and 3500 µL of PBS were added to reach 30% of EtOH concentration in the experiment. These solutions were filtered. The acceptor 96-well microplate was filled with 180 µL of PBS/EtOH (70/30). The donor 96-well plate was coated with 4 µL of porcine brain lipid in dodecane (20 mg mL-1) and after 5 min, 180 µL of each compound solution was added. 1 mg of […]
of EtOH and 1.4 mL of PBS, filtered and then added to the donor 96-well plate. Then the donor plate was carefully put on the acceptor plate to form a “sandwich”, which was left undisturbed for 2 h and 45 min at 25 °C. During this time the compounds diffused from the donor plate through the brain lipid membrane into the acceptor plate. After incubation, the donor plate was removed. UV plate reader determined the concentration of compounds and commercial drugs in the acceptor and the donor plates. Every sample was analyzed at three to five wavelengths (between 200 and 500 nm), in 3 wells and in two independent runs. Results are given as the mean and the average of the two runs is reported. Quality control compounds (previously mentioned) of known BBB permeability were included in each experiment to validate the analysis set.

SH-SY5Y cells [1] = assay: Cytotoxicity in SH-SY5Y cells (MTT); format: cell-based, human; conditions: MTT, 24 h treatment, 1.25–40 μM
Description: Human neuronal SH-SY5Y cells (Sigma-Aldrich, St. Louis, MO, USA) were routinely grown in Dulbecco’s modified Eagle’s Medium supplemented with 10% fetal bovine serum, 2 mM l-glutamine, 50 U/mL penicillin, and 50 μg/mL streptomycin at 37 °C in a humidified incubator with […]
Determination of cytotoxicity
(§1) SH-SY5Y cells were seeded in a 96-well plate at 2 × 10^4 cells/well, incubated for 24 h and then […]
for 24 h at 37°C in 5% CO2. The cell viability, in terms of mitochondrial metabolic function, was evaluated by the reduction of 3-(4,5-dimethyl-2-thiazolyl)-2,5-diphenyl-2H-tetrazolium bromide […]
(MTT) to its insoluble formazan. Briefly, the treatment was replaced with MTT in HBSS [0.5 mg/mL] for 2 h at 37°C in 5% CO2. After washing with HBSS, formazan crystals were dissolved in isopropanol. The amount of formazan was measured (570 nm, reference filter 690 nm) using a multilabel plate reader (VICTOR™ X3, PerkinElmer, Waltham, MA, USA). Data are expressed as mean of three independent experiments. […]

GSK-3β protein [2] = target: T1, GSK-3β protein (Homo sapiens, UniProt P49841); assay: GSK-3β degradation by Western blotting in SH-SY5Y cells; format: cell-based; set-up: endogenous in cells; host or cells: SH-SY5Y; conditions: 10 μM, 48 h, Western blotting
T1 sequence (P49841 whole entry): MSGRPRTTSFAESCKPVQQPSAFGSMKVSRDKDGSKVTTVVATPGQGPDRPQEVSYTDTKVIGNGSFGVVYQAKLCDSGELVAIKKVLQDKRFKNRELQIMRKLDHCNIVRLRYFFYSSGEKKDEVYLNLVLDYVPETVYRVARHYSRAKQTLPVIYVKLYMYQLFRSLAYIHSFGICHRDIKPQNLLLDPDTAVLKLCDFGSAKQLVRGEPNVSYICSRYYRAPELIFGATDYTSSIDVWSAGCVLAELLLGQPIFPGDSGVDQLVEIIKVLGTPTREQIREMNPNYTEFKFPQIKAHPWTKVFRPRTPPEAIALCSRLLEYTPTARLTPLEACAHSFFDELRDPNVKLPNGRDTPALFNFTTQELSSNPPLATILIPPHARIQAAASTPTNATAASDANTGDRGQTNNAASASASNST
Description: Determination of GSK-3β degradation by Western Blotting
At the end of incubation, cells were trypsinized and the cellular pellet was resuspended in complete lysis buffer containing leupeptin (2 µg/mL, Sigma-Aldrich), phenylmethylsulfonyl fluoride (PMSF, 100 µg/mL, Sigma-Aldrich) and a cocktail of protease/phosphatase inhibitors (100×). The protein concentration was determined using the Bradford method (Bio-Rad Laboratories Srl, Hercules, CA, USA). The protein lysates (50 µg per […]
polyacrylamide gels, Bio-Rad Laboratories SrL) and electroblotted onto 0.45 µm nitrocellulose membranes. Membranes were incubated overnight at 4 °C with primary antibody recognizing GSK-3β (1:1000, Cell Signaling Technologies Inc, Danvers, MA, USA). Membranes were then washed with TRIS-buffered saline-T (TBS + 0.05% Tween20), and then incubated with horseradish peroxidase (POD) linked anti-rabbit secondary antibody (1:2000, GE Healthcare, Chicago, IL, USA).
Immunoreactive bands were visualized by enhanced chemiluminescence (ECL, Bio-Rad Laboratories Srl). The same membranes were stripped and reprobed with anti β-actin (1:1000, Sigma-Aldrich). Data were normalized on the β-actin bands and analyzed by densitometry, using the Quantity One software (Bio-Rad Laboratories Srl).[9] […]

SH-SY5Y cells [3] = assay: Neuroprotective effects against CuSO4 in SH-SY5Y cells (MTT); format: cell-based, human; conditions: 1 μM, 24 h, CuSO4 150 μM, MTT
Description: as §1
presence of CuSO4 (150 µM) at 37 °C in 5 % CO2. Cells were also treated with compound 1 (1 µM) for 24 h in the presence of lactacystin (5 µM). At the end of the treatment, the cell viability, in terms of mitochondrial metabolic function, was evaluated by the reduction of 3-(4,5-dimethyl-2-thiazolyl)- 2,5-diphenyl-2H-tetrazolium bromide (MTT) to its insoluble formazan. Briefly, the treatment was replaced with MTT in HBSS [0.5 mg/mL] for 2 h at 37°C in 5% CO2. After washing with HBSS, formazan crystals were dissolved in isopropanol. The amount of formazan was measured (570 nm, reference filter 690 nm) using a multilabel plate reader (VICTOR™ X3, PerkinElmer, Waltham, MA, USA).[10] Data are reported as mean ± SEM of three independent experiments. The neurotoxicity was expressed as a percentage of control cells and calculated by the formula: 100 – ((absorbance of treated

[4] = commercial drugs of the validation study; ref [12]; cited from earlier work
GSK-3β protein [5] = target: T1, GSK-3β protein; assay: GSK-3β inhibition in vitro assay (Kinase-Glo luminescent); format: biochemical; set-up: purchased Millipore (Millipore Iberica S.A.U.); conditions: ATP 1 μM, GSM substrate 25 μM, 30 min at 37 °C; mean of at least two determinations in duplicate; read-out: IC50 ± SEM, GSK-3β activity
From the text: N-(2-(2-(2-((2-(2,6-dioxopiperidin-3-yl)-1,3-dioxoisoindolin-4-yl)amino)ethoxy)ethoxy)ethyl)- 4-((2-(naphthalen-1-yl)-3,5-dioxo-1,2,4-thiadiazolidin-4-yl)methyl)benzamide (4). Synthesized […]
GSK-3β inhibition in vitro assay. Human recombinant GSK-3β, prephosphorylated polypeptide substrate and white 96-well plates were purchased from Millipore (Millipore Iberica S.A.U.). Kinase-Glo Luminescent Kinase Assay was obtained from Promega (Promega Biotech Iberica, SL).
Adenosinetriphosphate (ATP) and all other reagents were from Sigma-Aldrich. Assay buffer contained 50 mM 4-(2-hydroxyethyl)-1- piperazineethanesulfonic acid (HEPES) (pH 7.5), 1 mM ethylenediaminetetraacetic acid (EDTA), 1 mM ethylene glycol tetraacetic acid (EGTA), and 15 mM magnesium acetate. The in solution experiments for GSK-3β inhibition analysis were performed by following the method developed by Baki et al.[1] In a typical assay, 10 μL of test compound (dissolved […]
in DMSO at 1 mM concentration and diluted in advance in assay buffer to the desired concentration) and 10 μL (20 ng) of enzyme were added to each well in presence of 20 μL of assay buffer containing […]
After a 30 min incubation time at 37 °C, the enzymatic reaction was stopped by adding 40 μL of Kinase-Glo reagent. Glow-type luminescence was recorded after 10 min using a Victorx3 (PerkinElmer Waltham, MA, USA) plate […]
inhibitory activities were calculated based on maximal kinase (average positive) and luciferase activities (average negative) measured in the absence of inhibitor and in the presence of reference […]
μM), respectively. The linear regression parameters were determined and the IC 50 extrapolated by GraphPad software (version 5.0; GraphPad Software, La Jolla, CA, USA).

[6] = classified from experimental Pe

SMILES	Papp at 2.75 h (PAMPA-BBB permeation) [×10⁻⁶ cm/s]	concentration at which cytotoxicity was shown (SH-SY5Y cells [1])	total GSK-3β protein level (GSK-3β protein [2])	other results
CNCCCN1c2ccccc2CCc2ccccc21 [Desipramine, reference compound]	36.5 ± 5.35	–	–	–
Cn1cc(C2=C(c3ccc(Cl)cc3Cl)C(=O)NC2=O)c2ccccc21 [SB-216763, reference compound]	–	higher than 20 μM	did not modify the basal level of GSK-3β protein	neurotoxicity induced by CuSO4 (SH-SY5Y cells [3]): significantly counteracted the neurotoxicity induced by CuSO4
CN1C(C(=O)Nc2ccccn2)=C(O)c2ccccc2S1(=O)=O [Piroxicam, reference compound]	12.8 ± 0.63	–	–	Pe (literature data) [4]: 2.5 10-6 cm s-1
CCn1cc(C(=O)O)c(=O)c2cc(F)c(N3CCNCC3)cc21 [Norfloxacin, reference compound]	5.37 ± 0.17	–	–	–
O=C1CCC(N2C(=O)c3cccc(NCCCOCCCCOCCCNC(=O)c4ccc(Cn5c(=O)sn(-c6cccc7ccccc67)c5=O)cc4)c3C2=O)C(=O)N1 (stereo not drawn) [Compound 2]	–	≥ 20 µM	did not induce GSK-3β degradation	IC50 (GSK-3β protein [5]): 79.3 nM and 79 nM
Cn1c(=O)c2c(ncn2C)n(C)c1=O [Caffeine, reference compound]	7.29 ± 0.57	–	–	–
O=C(Cn1cc(C2=C(c3ccc(Cl)cc3Cl)C(=O)NC2=O)c2ccccc21)NCCOCCOCCNc1cccc2c1C(=O)N(C1CCC(=O)NC1=O)C2=O (stereo not drawn) [Compound 3]	20.7 ± 3.93	higher than 20 μM	significantly decreased the total level of GSK-3β protein	IC50 (GSK-3β protein [5]): 457 ± 99 nM; BBB permeability classification (PAMPA-BBB permeation; [6]): predicted to cross the BBB; Prediction (penetration in the CNS) (PAMPA-BBB permeation; [6]): CNS + (CNS + (green) for P e > 15.78 × 10−6 cm s−1)
O=c1sn(-c2cccc3ccccc23)c(=O)n1Cc1ccccc1 [tideglusib, reference compound]	–	–	–	neurotoxicity induced by CuSO4 (SH-SY5Y cells [3]): significantly counteracted the neurotoxicity induced by CuSO4
O=C1CCC(N2C(=O)c3cccc(NCCOCCOCCNC(=O)c4ccc(Cn5c(=O)sn(-c6cccc7ccccc67)c5=O)cc4)c3C2=O)C(=O)N1 (stereo not drawn) [Compound 4, N-(2-(2-(2-((2-(2,6-dioxopiperidin-3-yl)-1,3-dioxoisoindolin-4-yl)amino)ethoxy)ethoxy)ethyl)-4-((2-(naphthalen-1-yl)-3,5-dioxo-1,2,4-thiadiazolidin-4-yl)methyl)benzamide]	–	higher than 20 μM	did not induce GSK-3β degradation	IC50 (GSK-3β protein [5]): 178 nM
CN(C)CCCN1c2ccccc2Sc2ccccc21 [Promazine, reference compound]	24.2 ± 0.89	–	–	Pe (literature data) [4]: 8.8 10-6 cm s-1
CCn1cc(C(=O)O)c(=O)c2cc(F)c(N3CCNCC3)nc21 [Enoxacin, reference compound]	10.3 ± 0.95	–	–	–
